Source: patent US4195023A, “2-(2-Furoyl)1,2-benzisothiazole-3-one, 2-(2-furoyl) saccharin, and 2-(2-thenoyl) saccharin” (Merck & Co., Inc., priority 1975, dated 1980)

What was measured:
papain-induced emphysema = assay: Papain-Induced Emphysema in the Hamster; type: in vivo, Male Syrian hamsters; conditions: for I.S.A.3 (internal surface area), Mean ± S.E. / Lm (mean linear intercept), Mean ± S.E.: *p<0.05 versus saline i.tr. + papain aerosol group
Source text: In view of the test results, infra, the compounds of formula I, supra, are inhibitors of elastase and may be used to treat emphysema and other disorders which may be treated with elastase inhibitors, such as rheumatoid arthritis. The test procedure described below for papain-induced emphysema in the hamster is representative of recognized procedures used to experimentally papain-induce emphysema in the hamster such as that of Goldring et al. "Sequential Anatomic Changes in Lungs Exposed to Papain and other Proteolytic Enzymes" pages 389-410 in Pulmonary Emphysema and Proteolysis, edited by C. Mittman, Academic Press, Inc., New York and London, 1972.
Male Syrian hamsters in the weight range of 70-90 g were used. Food and water was allowed ad libitum except in the exposure chamber. The animals were anesthetized with pentobarbital 60 mg/kg intraperitoneally (i.p.) and saline (control) or 2-(2-furoyl)-saccharin suspended in distilled water in doses of 0.3, 1 and 3 mg was given intratracheally (i.tr.) through a slightly bent capillary tube (Kimax-51 No. 34500). […] Approximately 40 minutes later the animals were exposed to an aerosol of distilled water or 3% papain (Matheson, Coleman and Bell) for 3 hours. The aerosol was generated by two nebulizers (De Vilbiss 40) attached to the sides of a 28 liter chamber and operated at a pressure of 10 lbs. p.s.i. During this period 80-100 ml of solution was used.
Seven days after the exposure the animals were sacrificed with an overdose of pentobarbital, exanguinated by cutting the renal arteries and the lungs were excised, weighed and placed in a cylindrical 0.45 liter plethysmograph with the trachea tied to a conducting tube. The latter was connected to a respiratory pump (E & M Inst. Co., Houston, Tex.) modified to provide static inflation and deflation of the lungs. Transpulmonary pressure was recorded on the abcissa of a Honeywell 530 x-y recorder through a Grass volumetric pressure transducer (PT 5A). Changes in lung volume were recorded on the ordinate of a spirometer (10 ml capacity) connected to a Harvard linear motion transducer.
The specific static compliance (SSC) of the lungs was determined as follows: the lungs were inflated to a pressure of 20 cm H2 O and then deflated at 30 second intervals by steps of 5 cm H2 O pressure. The procedure was repeated and the second pressure volume defation curve was used for analysis. SSC was then calculated according to the formula ΔV/ΔP×W, where ΔV represents change in lung volume (ml) following change in pressure (ΔP) from 5 to 0 cm H2 O, and W is the lung wet weight (g).
Subsequently, the lungs were degassed and fixed intratracheally with formalin at a constant pressure of 15 cm H2 O for at least 48 hours and then dehydrated at the same pressure. All lungs were cleared in toluene, embedded under vacuum in parafin and each pair was blocked together. Two laterosagittal sections (6μ) of each lung were made and stained with hematoxylin and eosin and the extent of emphysematous lesions was quantitatively estimated by measuring the average intra-alveolar distance (mean linear intercept of Lm). A total of 20 random histologic fields were evaluated both vertically and horizontally and subsequently corrected for distortion and shrinkage. The internal surface area of the lungs measured at post-fixation lung volume (V) and corrected to an arbitrary total lung volume of 3 ml (ISA3) was calculated according to the formula 4V/Lm. In all studies statistical evaluation consisted of analysis of variance and significance was taken at P≤0.05.

[1] = test system: elastase-induced emphysema (Porcine pancreatic elastase); assay: Elastase-Induced Emphysema in the Hamster; type: in vivo, Male Syrian hamsters; conditions: for Lm, Mean ± S.E.: *P<0.05 versus elastase 0.1 mg i.tr. group
[2] = test system: trypsin, chymotrypsin, plasmin, kallikrein, elastase, thrombin and a protease from Aspergillus oryzae; conditions: cited from earlier work
papain = conditions: cited from earlier work
Papain induced emphysema = conditions: hamster; cited from earlier work
[3] = Group C: 0.3 mg i.tr. + papain aerosol
[4] = Group D: 1 gm i.tr. (so in the source) + papain aerosol
[5] = Group E: 3 mg i.tr. + papain aerosol
[6] = Elastase 0.1 mg + 0.03 mg i.tr.

O=C(c1ccco1)N1C(=O)c2ccccc2S1(=O)=O [2-(2-Furoyl)-saccharin, 2-(2-Furoyl)saccharin]
% Inhibition (S.S.C.) (papain-induced emphysema; 0.3 mg i.tr. + papain aerosol): 34%
S.S.C. (specific static compliance) ΔV/ΔP × W, Mean ± S.E. (papain-induced emphysema; 0.3 mg i.tr. + papain aerosol): 0.529 ± 0.041
% Inhibition (S.S.C.) (papain-induced emphysema; 3 mg i.tr. + papain aerosol): 74%
S.S.C. (specific static compliance) ΔV/ΔP × W, Mean ± S.E. (papain-induced emphysema; 3 mg i.tr. + papain aerosol, *P<0.05 versus saline i.tr. + papain aerosol group): 0.360 ± 0.017
Inhibition, dose relation and significance (papain-induced emphysema; 0.3, 1 and 3 mg i.tr., significance at P≤0.05): dose related but significant only for doses of 1 and 3 mg
% Inhibition (S.S.C.) (papain-induced emphysema; 1 gm i.tr. (so in the source) + papain aerosol): 48%
S.S.C. (specific static compliance) ΔV/ΔP × W, Mean ± S.E. (papain-induced emphysema; 1 gm i.tr. (so in the source) + papain aerosol, *P<0.05 versus saline i.tr. + papain aerosol group): 0.471 ± 0.039
% inhibition (I.S.A.3) (papain-induced emphysema; [3]): 58%
% inhibition (Lm) (papain-induced emphysema; [3]): 69%
I.S.A.3 (internal surface area), Mean ± S.E. (papain-induced emphysema; [3]): 400 + 38 cm^2
Lm (mean linear intercept), Mean ± S.E. (papain-induced emphysema; [3]): 88.44 ± 2.54 μ
% inhibition (I.S.A.3) (papain-induced emphysema; [4]): 42%
% inhibition (Lm) (papain-induced emphysema; [4]): 59%
I.S.A.3 (internal surface area), Mean ± S.E. (papain-induced emphysema; [4]): 1344 ± 34 cm^2
Lm (mean linear intercept), Mean ± S.E. (papain-induced emphysema; [4]): 90.87 ± 2.40 μ
% inhibition (I.S.A.3) (papain-induced emphysema; [5]): 65%
% inhibition (Lm) (papain-induced emphysema; [5]): 84%
I.S.A.3 (internal surface area), Mean ± S.E. (papain-induced emphysema; [5]): 1445 ± 54 cm^2
Lm (mean linear intercept), Mean ± S.E. (papain-induced emphysema; [5]): 84.39 ± 2.68 μ
development of the emphysematous lesions (papain-induced emphysema; i.tr., evaluated by both physiologic and histologic methods): prevented the development of the emphysematous lestions
development of pulmonary emphysematous lesions ([1]; 1 mg added to elastase prior to i.tr. administration): completely prevented the development of pulmonary emphysematous lesions
protective effect (histological changes) ([1]; 0.03 to 0.3 mg added to elastase prior to i.tr. administration): partial but statistically significant protective effect
% inhibition of ΔLm [1, 6]: 48%
ΔLm [1, 6]: +17 μ
Lm, Mean ± S.E. [1, 6]: 96.61 ± 3.22 μ
% inhibition of ΔLm ([1]; Elastase 0.1 mg + 0.1 mg i.tr.): 54%
ΔLm ([1]; Elastase 0.1 mg + 0.1 mg i.tr.): +15 μ
Lm, Mean ± S.E. ([1]; Elastase 0.1 mg + 0.1 mg i.tr.): 94.34 ± 4.31 μ
% inhibition of ΔLm ([1]; Elastase 0.1 mg + 0.3 mg i.tr.): 51%
ΔLm ([1]; Elastase 0.1 mg + 0.3 mg i.tr.): +16 μ
Lm, Mean ± S.E. ([1]; Elastase 0.1 mg + 0.3 mg i.tr.): 96.27 ± 2.36 μ
% inhibition of ΔLm ([1]; Elastase 0.1 mg + 1.0 mg i.tr.): 100%
ΔLm ([1]; Elastase 0.1 mg + 1.0 mg i.tr.): -2 μ
Lm, Mean ± S.E. ([1]; Elastase 0.1 mg + 1.0 mg i.tr.): 77.68 ± 2.54 μ

human α1-antitrypsin (HAAT): a glycoprotein in human serum
inhibitory spectrum [2]: wide inhibitory spectrum covering trypsin, chymotrypsin, plasmin, kallikrein, elastase, thrombin and a protease from Aspergillus oryzae
inhibition of papain (papain): not inhibited
Papain induced emphysema inhibited (Papain induced emphysema): inhibited
